Measured values as given in patent US20230340011A1 (Asteroid Therapeutics, priority 2022, published 2023).

The molecules below were run against SREBP-2 (Homo sapiens (Human), UniProt Q12772) (assay: In vitro assay SREBP-2: PathHunter U2OS SREBP-2 Nuclear Translocation Cell Line, U18666A-stimulated). Details: PathHunter U2OS SREBP-2 nuclear translocation cells, U18666A 10 μM, overnight (16 hours).
Format: cell-based
For CC(=N)N1CCN(C(=O)CC[C@@H](C)[C@H]2CC[C@H]3[C@@H]4CC=C5C[C@@H](O)CC[C@]5(C)[C@H]4CC[C@]23C)CC1 [Example 459, (R)-4-((3S,8S,9S,10R,13R,14S,17R)-3-hydroxy-10,13-dimethyl-2,3,4,7,8,9,10,11,12,13,14,15,16,17-tetradecahydro-1H-cyclopenta[a]phenanthren-17-yl)-1-(4-(1-iminoethyl)piperazin-1-yl)pentan-1-one], the IC50 was 250 to 1000 nM. For CNC(=O)c1ccc(OC[C@@H](C)[C@H]2CC[C@H]3[C@@H]4CC=C5C[C@@H](O)CC[C@]5(C)[C@H]4CC[C@]23C)nc1 [Example 449, 6-((S)-2-((3S,8S,9S,10R,13S,14S,17R)-3-hydroxy-10,13-dimethyl-2,3,4,7,8,9,10,11,12,13,14,15,16,17-tetradecahydro-1H-cyclopenta[a]phenanthren-17-yl)propoxy)-N-methylnicotinamide], the IC50 was < 250 nM. Molecule C[C@H](Oc1ccccn1)[C@H]1CC[C@H]2[C@@H]3CC=C4C[C@@H](O)CC[C@]4(C)[C@H]3CC[C@]12C [Example 381, (3S,8S,9S,10R,13S,14S,17S)-10,13-dimethyl-17-((S)-1-(pyridin-2-yloxy)ethyl)-2,3,4,7,8,9,10,11,12,13,14,15,16,17-tetradecahydro-1H-cyclopenta[a]phenanthren-3-ol] has an IC50 of 1000 to 10000 nM. For CCN(CC(=O)O)C(=O)CC[C@@H](C)[C@H]1CC[C@H]2[C@@H]3CC=C4C[C@@H](O)CC[C@]4(C)[C@H]3CC[C@]12C [Example 109, N-ethyl-N—((R)-4-((3S,8S,9S,10R,13R,14S,17R)-3-hydroxy-10,13-dimethyl-2,3,4,7,8,9,10,11,12,13,14,15,16,17-tetradecahydro-1H-cyclopenta[a]phenanthren-17-yl)pentanoyl)glycine], the IC50 was > 10000 nM. C[C@H](CCC(=O)N1CC[C@H](NC(=O)c2cnn(C)c2)C1)[C@H]1CC[C@H]2[C@@H]3CC=C4C[C@@H](O)CC[C@]4(C)[C@H]3CC[C@]12C [Example 526, N-[(3S)-1-[(4R)-4-[(1R,3aS,3bS,7S,9aR,9bS,11aR)-7-hydroxy-9a,11a-dimethyl-1H,2H,3H,3aH,3bH,4H,6H,7H,8H,9H,9aH,9bH,10H,11H,11aH-cyclopenta[a]phenanthren-1-yl]pentanoyl]pyrrolidin-3-yl]-1-methyl-1H-pyrazole-4-carboxamide] was tested, and the IC50 was < 250 nM. For C#CC1(OC)CCN(C(=O)CC[C@@H](C)[C@H]2CC[C@H]3[C@@H]4CC=C5C[C@@H](O)CC[C@]5(C)[C@H]4CC[C@]23C)CC1 [Example 330, (R)-1-(4-ethynyl-4-methoxypiperidin-1-yl)-4-((3S,8S,9S,10R,13R,14S,17R)-3-hydroxy-10,13-dimethyl-2,3,4,7,8,9,10,11,12,13,14,15,16,17-tetradecahydro-1H-cyclopenta[a]phenanthren-17-yl)pentan-1-one], the IC50 was < 250 nM. Work on C[C@H](Oc1cccnc1CO)[C@H]1CC[C@H]2[C@@H]3CC=C4C[C@@H](O)CC[C@]4(C)[C@H]3CC[C@]12C [Example 270, (3S,8S,9S,10R,13S,14S,17S)-17-((S)-1-((2-(hydroxymethyl)pyridin-3-yl)oxy)ethyl)-10,13-dim ethyl-2,3,4,7,8,9,10,11,12,13,14,15,16,17-tetradecahydro-1H-cyclopenta[a]phenanthren-3-ol] yielded an IC50 of 250 to 1000 nM. With CNC(=O)c1cccnc1OC[C@@H](C)[C@H]1CC[C@H]2[C@@H]3CC=C4C[C@@H](O)CC[C@]4(C)[C@H]3CC[C@]12C [Example 451, 2-((S)-2-((3S,8S,9S,10R,13S,14S,17R)-3-hydroxy-10,13-dimethyl-2,3,4,7,8,9,10,11,12,13,14,15,16,17-tetradecahydro-1H-cyclopenta[a]phenanthren-17-yl)propoxy)-N-methylnicotinamide] the IC50 was < 250 nM. For CNC(=O)NC[C@@H](C)[C@H]1CC[C@H]2[C@@H]3CC=C4C[C@@H](O)CC[C@]4(C)[C@H]3CC[C@]12C [Example 239, 1-((S)-2-((3S,8S,9S,10R,13S,14S,17R)-3-hydroxy-10,13-dimethyl-2,3,4,7,8,9,10,11,12,13,14,15,16,17-tetradecahydro-1H-cyclopenta[a]phenanthren-17-yl)propyl)-3-methylurea], the IC50 was 250 to 1000 nM. In the case of C[C@H](CCC(=O)NCC(=O)O)[C@H]1CC[C@H]2[C@@H]3CC=C4C[C@@H](O)CC[C@]4(C)[C@H]3CC[C@]12C [Example 107, ((R)-4-((3S,8S,9S,10R,13R,14S,17R)-3-hydroxy-10,13-dimethyl-2,3,4,7,8,9,10,11,12,13,14,15,16,17-tetradecahydro-1H-cyclopenta[a]phenanthren-17-yl)pentanoyl)glycine], the IC50 is reported as > 10000 nM. Molecule C[C@H](OC(=O)N(C)C)[C@H]1CC[C@H]2[C@@H]3CC=C4C[C@@H](O)CC[C@]4(C)[C@H]3CC[C@]12C [Example 242, (1S)-1-[(1S,3aS,3bS,7S,9aR,9bS,11aS)-7-hydroxy-9a,11a-dimethyl-1H,2H,3H,3aH,3bH,4H,6H,7H,8H,9H,9aH,9bH,10H,11H,11aH-cyclopenta[a]phenanthren-1-yl]ethyl N,N-dimethylcarbamate] has an IC50 of 250 to 1000 nM. In the case of Cc1cccc(OC[C@@H](C)[C@H]2CC[C@H]3[C@@H]4CC=C5C[C@@H](O)CC[C@]5(C)[C@H]4CC[C@]23C)n1 [Example 440, (1R,3aS,3bS,7S,9aR,9bS,11aS)-9a,11a-dimethyl-1-[(2S)-1-[(6-methylpyridin-2-yl)oxy]propan-2-yl]-1H,2H,3H,3aH,3bH,4H,6H,7H,8H,9H,9aH,9bH,10H,11H,11aH-cyclopenta[a]phenanthren-7-ol], the IC50 is reported as 250 to 1000 nM. For C[C@H](CCC(=O)N1CCC[C@@H](Oc2ccncc2)C1)[C@H]1CC[C@H]2[C@@H]3CC=C4C[C@@H](O)CC[C@]4(C)[C@H]3CC[C@]12C [Example 521, (R)-4-((3S,8S,9S,10R,13R,14S,17R)-3-hydroxy-10,13-dimethyl-2,3,4,7,8,9,10,11,12,13,14,15,16,17-tetradecahydro-1H-cyclopenta[a]phenanthren-17-yl)-1-((R)-3-(pyridin-4-yloxy)piperidin-1-yl)pentan-1-one], the IC50 was < 250 nM. Molecule CNC(=O)NC[C@@H](C)[C@H]1CC[C@H]2[C@@H]3CC=C4C[C@@H](O)CC[C@]4(C)[C@H]3CC[C@]12C [Example 464, 1-((S)-2-((3S,8S,9S,10R,13S,14S,17R)-3-hydroxy-10,13-dimethyl-2,3,4,7,8,9,10,11,12,13,14,15,16,17-tetradecahydro-1H-cyclopenta[a]phenanthren-17-yl)propyl)-3-methylurea] has an IC50 of 250 to 1000 nM. For CCOc1cccnc1CC[C@@H](C)[C@H]1CC[C@H]2[C@@H]3CC=C4C[C@@H](O)CC[C@]4(C)[C@H]3CC[C@]12C [Example 457, (1R,3aS,3bS,7S,9aR,9bS,11aR)-1-[(2R)-4-(3-ethoxypyridin-2-yl)butan-2-yl]-9a,11a-dimethyl-1H,2H,3H,3aH,3bH,4H,6H,7H,8H,9H,9aH,9bH,10H,11H,11aH-cyclopenta[a]phenanthren-7-ol], the IC50 was < 250 nM. In the case of C[C@H](CCC(=O)N1CCC(O)(C(F)F)CC1)[C@H]1CC[C@H]2[C@@H]3CC=C4C[C@@H](O)CC[C@]4(C)[C@H]3CC[C@]12C [Example 128, (R)-1-(4-(difluoromethyl)-4-hydroxypiperidin-1-yl)-4-((3S,8S,9S,10R,13R,14S,17R)-3-hydroxy-10,13-dimethyl-2,3,4,7,8,9,10,11,12,13,14,15,16,17-tetradecahydro-1H-cyclopenta[a]phenanthren-17-yl)pentan-1-one], the IC50 is reported as < 250 nM. With C[C@H](CCC(=O)N1OCCC[C@@H]1C)[C@H]1CC[C@H]2[C@@H]3CC=C4C[C@@H](O)CC[C@]4(C)[C@H]3CC[C@]12C [Example 74, (R)-4-((3S,8S,9S,10R,13R,14S,17R)-3-hydroxy-10,13-dimethyl-2,3,4,7,8,9,10,11,12,13,14,15,16,17-tetradecahydro-1H-cyclopenta[a]phenanthren-17-yl)-1-((S)-3-methyl-1,2-oxazinan-2-yl)pentan-1-one] the IC50 was < 250 nM. For C[C@H](CCC(=O)N1CC[C@@H](Oc2ccncc2)C[C@@H]1C)[C@H]1CC[C@H]2[C@@H]3CC=C4C[C@@H](O)CC[C@]4(C)[C@H]3CC[C@]12C [Example 586, (R)-4-((3S,8S,9S,10R,13R,14S,17R)-3-hydroxy-10,13-dimethyl-2,3,4,7,8,9,10,11,12,13,14,15,16,17-tetradecahydro-1H-cyclopenta[a]phenanthren-17-yl)-1-((2S,4R)-2-methyl-4-(pyridin-4-yloxy)piperidin-1-yl)pentan-1-one], the IC50 was < 250 nM. CC[C@H]1NC[C@@H]2CON(C(=O)CC[C@@H](C)[C@H]3CC[C@H]4[C@@H]5CC=C6C[C@@H](O)CC[C@]6(C)[C@H]5CC[C@]34C)[C@@H]21 [Example 47, (R)-1-((3aS,6R,6aS)-6-ethylhexahydro-1H-pyrrolo[3,4-c]isoxazol-1-yl)-4-((3S,8S,9S,10R,13R,14S,17R)-3-hydroxy-10,13-dimethyl-2,3,4,7,8,9,10,11,12,13,14,15,16,17-tetradecahydro-1H-cyclopenta[a]phenanthren-17-yl)pentan-1-one] was tested, and the IC50 was 250 to 1000 nM. In the case of C[C@H](CCC(=O)N1CCC(N2CCOCC2=O)CC1)[C@H]1CC[C@H]2[C@@H]3CC=C4C[C@@H](O)CC[C@]4(C)[C@H]3CC[C@]12C [Example 525, 4-(1-((R)-4-((3S,8S,9S,10R,13R,14S,17R)-3-hydroxy-10,13-dimethyl-2,3,4,7,8,9,10,11,12,13,14,15,16,17-tetradecahydro-1H-cyclopenta [a]phenanthren-17-yl)pentanoyl)piperidin-4-yl)morpholin-3-one], the IC50 is reported as < 250 nM. CNC(=O)[C@H]1CCN(C(=O)CC[C@@H](C)[C@H]2CC[C@H]3[C@@H]4CC=C5C[C@@H](O)CC[C@]5(C)[C@H]4CC[C@]23C)C1 [Example 536, (S)-1-((R)-4-((3S,8S,9S,10R,13R,14S,17R)-3-hydroxy-10,13-dimethyl-2,3,4,7,8,9,10,11,12,13,14,15,16,17-tetradecahydro-1H-cyclopenta[a]phenanthren-17-yl)pentanoyl)-N-methylpyrrolidine-3-carboxamide] gave an IC50 of 250 to 1000 nM.
